Reference: ChEMBL document CHEMBL1135210, “Succinimide hydroxamic acids as potent inhibitors of histone deacetylase (HDAC)” (Bioorg Med Chem Lett, 2002)

Legend:
cells = type: functional; settings: Homo sapiens, MDA435
Description: Concentration required for the antiproliferation of Human MDA-435 breast carcinoma cells

HT-1080 = assay: Concentration required for the antiproliferation of Human HT1080 fibrosarcoma cells; type: functional, cell-based
Histone deacetylase = assay: Concentration required to inhibit Histone Deacetylase (HDAC) from K562 erythroleukemia cells; type: cell-based, Homo sapiens

Row | SMILES | IC50 (cells) [nM] | IC50 (HT-1080) [nM] | IC50 (Histone deacetylase) [nM]
1 | CC(C)C[C@@H]1CC(=O)N([C@@H](Cc2ccccc2)C(=O)NCCCCCC(=O)NO)C1=O | 670 | 2300 | 99
2 | CCC[C@H]1C(=O)N([C@@H](Cc2ccccc2)C(=O)NCCCCCC(=O)NO)C(=O)[C@@H]1CC(C)C | 570 | 400 | 51
3 | CCC[C@H]1C(=O)N([C@@H](Cc2ccc(OC)cc2)C(=O)NCCCCCC(=O)NO)C(=O)[C@@H]1CC(C)C | 180 | 530 | 38
4 | O=C(CCCCCNC(=O)[C@H](Cc1ccccc1)N1C(=O)CCC1=O)NO | 10000 | 14000 | 660
5 | CC(C)C[C@H]1CN[C@H](C(=O)NCCCCCC(=O)NO)Cc2ccc(cc2)OCCCCC[C@H]1C(=O)OC(C)(C)C | – | – | 2.1
6 | CNCC(=O)[C@@H](Cc1ccccc1)NC(=O)CCCCCCC(=O)NO | – | – | 1400
7 | CC(C)C[C@@H]1CC(=O)N([C@@H](CC2CCCCC2)C(=O)NCCCCCC(=O)NO)C1=O | – | – | 640
8 | CC(C)C[C@H]1C(=O)N2C[C@@H]1CCCCCOc1ccc(cc1)C[C@H]2C(=O)NCCCCCC(=O)NO | 150 | 250 | 38
9 | O=C(CCCCCNC(=O)[C@H](Cc1ccccc1)N1CCCC1=O)NO | – | – | > 5000
10 | CC(C)C[C@H]1C(=O)N([C@@H](Cc2ccccc2)C(=O)NCCCCCC(=O)NO)C(=O)C12CCCC2 | 700 | 1500 | 66
11 | CC(C)C[C@@H]1CC(=O)N(CC(=O)NCCCCCC(=O)NO)C1=O | – | – | 5000
